Measured values from publication PMC7031697, “Mechanism of Activation of AMPK by Cordycepin” (Cell Chemical Biology, 2020).

Legend:
AMPK DKO U2OS cells = test: Clonal survival assay, AMPK DKO U2OS; type: cell-based; settings: Homo sapiens, 8 h incubation, read-out: half-maximal effect on clonal survival
Description: AMPK-α1^-/- -α2^-/- U2OS cells were generated using the Cas9 (D10A) double nickase system. Pairs of guide RNAs targeted to exon 4 in both PRKAA1 and PRKAA2, along with screening primers for genotyping, were designed and cloned by Thomas Macartney and are available by contacting MRCPPU Reagents and Services (https://mrcppureagents.dundee.ac.uk). Sense guides were cloned into the puromycin-selectable pBABED puro U6 vector and antisense guides into the Cas9 (D10A) vector pX335. U2OS cells carrying a Flp recombinase target site were transfected with 1 μg of each plasmid using Fugene6 according to manufacturers’ instructions. At 24 and 48 hr after transfection, medium was replaced with fresh medium containing 1 μg/ml puromycin. […] Clones were expanded and screened for loss of AMPK protein and activity by Western blotting using anti-AMPK-α and pACC antibody normalised to total ACC detected using streptavidin. […]
Cells were seeded into 6-well plates at equal density and treated in triplicate at 40% to 60% confluence with vehicle or cordycepin for the indicated time. […] Cells in control wells were counted using a hemocytometer and 1000 cells from vehicle and cordycepin-treated wells were seeded in triplicate into 10 cm dishes containing 10 ml of medium. […] The dishes were washed with water and the number of colonies counted manually.

HepG2 cells [1] = test: Cellular oxygen consumption (Seahorse XF24); type: cell-based, human
Protocol: Cellular oxygen consumption rate (OCR) was measured using a Seahorse XF24 Extracellular Flux Analyser with 50,000 cells per well, as described previously ([Hawley et al., 2010]). HepG2 cells were cultured overnight in 24 well plates (50,000 cells/well) in standard medium as above. One hour before the experiment, the medium was replaced with 675 μl of unbuffered medium, pH 7.4: 8.3 g/L DMEM base (Sigma), 2 mM GlutaMax-1, 5 mM glucose, 32 mM NaCl, and 40 μM Phenol Red. Compounds (75 μl) were injected into wells as specified, and OCR continuously measured as described by the manufacturers of the Analyser ([Wu et al., 2007]).

HepG2 cells [2] = test: Measurement of cordycepin in cell medium of HepG2 cells (LC-MS); type: in vitro ADME, human; settings: 100 μM added
Protocol: (§1) The same LC-MS system was used to detect and quantify cordycepin. LC conditions were optimized using a TSKgel Amine-80 Column (100 × 1 mm, ID 5 μm, Part No.0020010, TOSOH Bioscience). Mobile phase buffer A consisted of 0.1% (v/v) formic acid and buffer B was in 80% (v/v) acetonitrile. The column was maintained at 40°C and was equilibrated with 98% buffer B for 5 min at a constant flow rate of 0.05 mL/min. Samples were diluted 1/1500 and aliquots of 4 μL of each sample loaded onto the column. Cordycepin was eluted by decreasing buffer B from 98% to 85% within 2 min and then to 10% within 5 min. Eluents were sprayed into the TSQ Quantiva which was run in positive mode with a spray voltage of 2700, sheath gas 40, aux gas 20, sweep gas 2. Levels of cordycepin were measured using multiple reaction monitoring mode (MRM) with optimized collision energies and radio frequencies previously determined by infusing pure compound. One transition (252 > 136) was used to detect and monitor cordycepin.

[3] = as above; type: in vitro ADME, human; settings: human, 100 μM added
Protocol: as §1

HepG2 cells [4] = test: Cellular content of adenine and cordycepin nucleotides by LC-MS; type: cell-based, human; settings: 1 h
Protocol: After treatment, cells for nucleotide analysis were lysed in 70% perchloric acid and the acid extracted as described previously ([Hawley et al., 2010]). The levels of AMP, ADP, ATP, CoMP, CoDP and CoTP were measured using a TSQ Quantiva (with an ion Max NG source) interfaced with an Ultimate 3000 Liquid Chromatography system (ThermoScientific). Separation of all compounds was achieved using a porous graphitic carbon column (HyperCarb 30x1 mm ID […]; Part No: C-35003-031030, Thermo-Scientific) as described previously ([Ross et al., 2017]) with some modifications. Mobile phase buffer A consisted of 0.3% (v/v) formic acid adjusted to pH 9 with ammonia prior to a 1:10 dilution. Mobile phase buffer B was 80% (v/v) acetonitrile. The column was maintained at a controlled temperature of 40°C and equilibrated with 10% buffer B for 5 min at a constant flow rate of 0.05 mL/min. Aliquots of 1μL of each sample were loaded onto the column and compounds eluted with a linear gradient from 10% buffer B to 12% buffer B within 1 min, then 12% B to 100% B within 2 min; the column was then washed for 4 min with 100% Buffer B. Eluents were sprayed into the TSQ Quantiva using Ion Max NG ion source with ion transfer tube temperature at 350°C and vaporizer temperature 30°C. The TSQ Quantiva was run in negative mode with a spray voltage of 3500, sheath gas 40, aux gas 20 and sweep gas 2. Levels of ATP, ADP and AMP were measured using multiple reactions monitoring mode (MRM) with transitions described previously ([Ross et al., 2017]). For CoMP, CoDP and CoTP, optimised collision energies and radio frequencies were determined by infusing the pure compounds. Two transitions were used to monitor each of the three compounds, CoMP (330.22>134.01, 330.22>195.11), CoDP (410>256.67, 410>392.0) and CoTP (490>158.89, 490.11>472.11).

[5] = test system: wild-type (WT) U2OS cells; test: Clonal survival assay, wild-type U2OS; type: cell-based; settings: Homo sapiens, 8 h incubation, read-out: half-maximal effect on clonal survival
Protocol: Cells were seeded into 6-well plates at equal density and treated in triplicate at 40% to 60% confluence with vehicle or cordycepin for the indicated time. Cells were trypsinized in 1 ml trypsin:EDTA for 5 min and diluted in 1 ml of complete medium. Cells in control wells were counted using a hemocytometer and 1000 cells from vehicle and cordycepin-treated wells were seeded in triplicate into 10 cm dishes containing 10 ml of medium. The dishes were incubated at 37°C for 10-15 days. On the last day, the medium was decanted, cells fixed with ice-cold methanol for 10 min and stained with 10% v/v Giemsa stain in water for 15 min. The dishes were washed with water and the number of colonies counted manually.

Compound: Nc1ncnc2c1ncn2[C@@H]1O[C@H](CO)C[C@H]1O [cordycepin, 3′-deoxyadenosine]
- EC50 (AMPK DKO U2OS cells): 44 ± 2 µM
- effect on basal oxygen uptake (HepG2 cells [1]; 30 μM to 1 mM): only minor effects
- inhibition of basal oxygen uptake (HepG2 cells [1]; 300 μM after 45 min and 1 mM after 30 and 45 min): modest inhibition
- effect on maximal oxygen uptake (HepG2 cells [1]; after addition of the uncoupler 2,4-dinitrophenol): no significant effects
- effect on residual oxygen uptake (HepG2 cells [1]; after subsequent addition of rotenone and antimycin A): no significant effects
- decline of cordycepin in the medium (HepG2 cells [2]; by 2 h): 70%
- cordycepin remaining in the medium (HepG2 cells [2]; by 4 h): almost disappeared
- half-life at 100 μM [3]: ~1.33 h
- AMPK activation and CoMP formation (HepG2 cells [4]; 30 μM cordycepin or below): neither AMPK activation nor CoMP formation was observed
- decrease in cellular ADP content (HepG2 cells [4]; 1 mM cordycepin): 14 fold
- decrease in cellular AMP content (HepG2 cells [4]; 1 mM cordycepin): 5 fold
- drop in cellular ATP content (HepG2 cells [4]; 1 mM cordycepin): 100 fold
- EC50 [5]: 81 ± 4 µM
